How the values were obtained:
MAGL = molecular target: T1, MAGL (Mus musculus, UniProt O35678); assay: In vitro competitive activity-based protein profiling, mouse MAGL; format: biochemical; settings: for inhibition at 1 µM: read-out: MAGL % inh. 1 μM (mouse)
T1 construct: mouse brain membrane fraction or cell lysates for mouse assays; from tissue
T1 sequence (O35678 1-303): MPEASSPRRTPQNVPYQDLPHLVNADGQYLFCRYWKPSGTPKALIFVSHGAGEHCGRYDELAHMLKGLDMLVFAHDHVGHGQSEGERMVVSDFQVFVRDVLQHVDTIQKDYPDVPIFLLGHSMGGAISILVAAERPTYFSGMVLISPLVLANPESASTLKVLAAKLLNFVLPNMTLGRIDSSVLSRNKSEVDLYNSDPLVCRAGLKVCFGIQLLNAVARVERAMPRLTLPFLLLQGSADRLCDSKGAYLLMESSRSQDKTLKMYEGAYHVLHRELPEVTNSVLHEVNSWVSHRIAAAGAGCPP
Method: (§1) In Vitro Competitive Activity-Based Protein Profiling.
(§2) Proteomes (mouse brain membrane fraction or cell lysates for mouse assays; human prefrontal cortex or cell membrane fractions for human assays) (50 μL, 1.0 mg/mL total protein concentration) were preincubated with varying concentrations of inhibitors at 37° C. After 30 min, FP-Rh or HT-01 (1.0 μL, 50 μM in DMSO) was added and the mixture was incubated for another 30 min at 37° C. Reactions were quenched with SDS loading buffer (15 μL—4×) and run on SDS-PAGE. Following gel imaging, serine hydrolase activity was determined by measuring fluorescent intensity of gel bands corresponding to MAGL and FAAH using ImageJ 1.43u software.

FAAH = molecular target: T2, FAAH (Mus musculus, UniProt O08914); assay: In vitro competitive activity-based protein profiling, mouse FAAH; format: biochemical; settings: for inhibition at 1 µM: read-out: FAAH % inh. 1 μM (mouse)
T2 construct: mouse brain membrane fraction or cell lysates for mouse assays; from tissue
T2 sequence (O08914 1-579): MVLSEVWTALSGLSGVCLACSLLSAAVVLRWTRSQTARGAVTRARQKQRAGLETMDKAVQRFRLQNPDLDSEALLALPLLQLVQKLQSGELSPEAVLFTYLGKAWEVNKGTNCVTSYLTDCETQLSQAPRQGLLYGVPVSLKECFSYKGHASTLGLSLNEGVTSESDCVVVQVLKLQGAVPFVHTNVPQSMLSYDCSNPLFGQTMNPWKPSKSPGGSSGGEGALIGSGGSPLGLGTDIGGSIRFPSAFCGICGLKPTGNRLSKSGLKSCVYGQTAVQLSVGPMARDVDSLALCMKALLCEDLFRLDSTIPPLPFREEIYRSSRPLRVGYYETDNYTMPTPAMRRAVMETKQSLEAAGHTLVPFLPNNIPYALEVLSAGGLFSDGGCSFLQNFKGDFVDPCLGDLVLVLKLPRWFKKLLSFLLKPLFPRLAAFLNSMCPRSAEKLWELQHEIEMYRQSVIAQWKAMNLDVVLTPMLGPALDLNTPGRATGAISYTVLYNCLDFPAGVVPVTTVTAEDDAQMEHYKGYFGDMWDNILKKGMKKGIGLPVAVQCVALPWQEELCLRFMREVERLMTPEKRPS
Method: as §1, §2

SMILES | IC50 (MAGL) [nM] | inhibition at 1 µM (MAGL) [%] | IC50 (FAAH) [nM] | inhibition at 1 µM (FAAH; 1 μM) [%] | inhibition at 10 µM (MAGL; 10 μM, read-out: MAGL % inh. at 10 μM (mouse)) [%] | inhibition at 10 µM (FAAH; 10 μM, read-out: FAAH % inh. at 10 μM (mouse)) [%] | MAGL % inh. 1 μM (mouse) (MAGL) | FAAH % inh. 1 μM (mouse) (FAAH; 1 μM)
NC(=O)c1cnn(C(=O)N2CCC3(CCN(Cc4ccc(Cl)cc4)C3)C2)c1 (stereo not shown) [Example 37, 1-(7-(4-chlorobenzyl)-2,7-diazaspiro[4.4]nonane-2-carbonyl)-1H-pyrazole-4-carboxamide] | 1000 to 10000 | 50 to 75 | ≤ 100 | ≥ 75 |  |  |  | 
CNC(=O)c1cnn(C(=O)N2CCC3(CCN(Cc4ccc(Cl)cc4)C3)C2)c1 (stereo not shown) [Example 38, 1-(7-(4-chlorobenzyl)-2,7-diazaspiro[4.4]nonane-2-carbonyl)-N-methyl-1H-pyrazole-4-carboxamide] | 1000 to 10000 | 0 to 25 | 100 to 1000 | ≥ 75 |  |  |  | 
CNC(=O)c1cnn(C(=O)N2CCC3(CCN(Cc4cc(Cl)ccc4Cl)C3)C2)c1 (stereo not shown) [Example 40, 1-(7-(2,5-dichlorobenzyl)-2,7-diazaspiro[4.4]nonane-2-carbonyl)-N-methyl-1H-pyrazole-4-carboxamide] |  | ≥ 75 |  | ≥ 75 |  |  |  | 
CNC(=O)c1cnn(C(=O)N2CCC3(CCN(Cc4cccc(C(F)(F)F)c4)C3)C2)c1 (stereo not shown) [Example 42, N-methyl-1-(7-(3-(trifluoromethyl)benzyl)-2,7-diazaspiro[4.4]nonane-2-carbonyl)-1H-pyrazole-4-carboxamide] |  | 0 to 25 |  | ≥ 75 | 100 | 100 |  | 
CNC(=O)c1cnn(C(=O)N2CCC3(CCN(Cc4cc(Cl)cc(C(F)(F)F)c4)C3)C2)c1 (stereo not shown) [Example 44, 1-(7-(3-chloro-5-(trifluoromethyl)benzyl)-2,7-diazaspiro[4.4]nonane-2-carbonyl)-N-methyl-1H-pyrazole-4-carboxamide] |  | ≥ 75 |  | ≥ 75 |  |  |  | 
CNC(=O)c1cnn(C(=O)N2CCC3(CCN(Cc4ccc(N5CCOCC5)cc4C(F)(F)F)C3)C2)c1 (stereo not shown) [Example 49, N-methyl-1-(7-(4-morpholino-2-(trifluoromethyl)benzyl)-2,7-diazaspiro[4.4]nonane-2-carbonyl)-1H-pyrazole-4-carboxamide] |  | ≥ 75 |  | ≥ 75 |  |  |  | 
O=C(c1cnn(C(=O)N2CCC3(CCN(Cc4ccc(N5CCOCC5)cc4C(F)(F)F)C3)C2)c1)N1CCOCC1 (stereo not shown) [Example 51, (4-(morpholine-4-carbonyl)-1H-pyrazol-1-yl)(7-(4-morpholino-2-(trifluoromethyl)benzyl)-2,7-diazaspiro[4.4]nonan-2-yl)methanone] |  | 25 to 50 |  | ≥ 75 |  |  |  | 
O=C(c1cnn(C(=O)N2CCC3(CCN(Cc4ccc(N5CCOCC5)cc4C(F)(F)F)C3)C2)c1)N1CCN(C2CC2)CC1 (stereo not shown) [Example 52, (4-cyclopropylpiperazin-1-yl)(1-(7-(4-morpholino-2-(trifluoromethyl)benzyl)-2,7-diazaspiro[4.4]nonane-2-carbonyl)-1H-pyrazol-4-yl)methanone] |  | ≥ 75 |  | ≥ 75 |  |  |  | 
CN(Cc1ccc(C(F)(F)F)cc1)[C@@H]1C[C@@H]2CN(C(=O)n3cc(C(=O)N4CCOCC4)cn3)C[C@@H]2C1 [Example 53, (cis-5-(methyl(4-(trifluoromethyl)benzyl)amino)hexahydrocyclopenta[c]pyrrol-2(1H)-yl)(4-(morpholine-4-carbonyl)-1H-pyrazol-1-yl)methanone] |  | 25 to 50 |  | ≥ 75 |  |  |  | 
CNC(=O)c1cnn(C(=O)N2C[C@H]3C[C@@H](N(C)Cc4ccccc4Cl)C[C@H]3C2)c1 [Example 56, 1-(trans-5-((2-chlorobenzyl)(methyl)amino)octahydrocyclopenta[c]pyrrole-2-carbonyl)-N-methyl-1H-pyrazole-4-carboxamide] |  |  |  | ≥ 75 |  |  | C (% inhibition greater than or equal to 25% and less than 50%) | 
CN(Cc1ccccc1Cl)[C@@H]1C[C@@H]2CN(C(=O)n3cc(C(=O)N4CCCC4)cn3)C[C@@H]2C1 [Example 57, (trans-5-((2-chlorobenzyl)(methyl)amino)hexahydrocyclopenta[c]pyrrol-2(1H)-yl)(4-(pyrrolidine-1-carbonyl)-1H-pyrazol-1-yl)methanone] |  |  |  |  |  |  | B (% inhibition greater than or equal to 50% and less than 75%) | A (% inhibition greater than or equal to 75%)
CN(Cc1ccccc1Cl)[C@@H]1C[C@@H]2CN(C(=O)n3cc(Cl)cn3)C[C@@H]2C1 [Example 58, (4-chloro-1H-pyrazol-1-yl)(cis-5-((2-chlorobenzyl)(methyl)amino)hexahydrocyclopenta[c]pyrrol-2(1H)-yl)methanone] | 100 to 1000 | ≥ 75 | ≤ 100 | ≥ 75 |  |  |  | 
CC(=O)N(Cc1cccc(Cl)c1)[C@@H]1C[C@@H]2CN(C(=O)n3cc(Cl)cn3)C[C@@H]2C1 [Example 60, N-(cis-2-(4-chloro-1H-pyrazole-1-carbonyl)octahydrocyclopenta[c]pyrrol-5-yl)-N-(3-chlorobenzyl)acetamide] | ≤ 100 | ≥ 75 | ≤ 100 | ≥ 75 |  |  |  | 
O=C(N1C[C@H]2C[C@@H](NCc3ccccc3Cl)C[C@H]2C1)n1cc(Cl)cn1 [Example 61, (4-chloro-1H-pyrazol-1-yl)(cis-5-((2-chlorobenzyl)amino)hexahydrocyclopenta[c]pyrrol-2(1H)-yl)methanone] | 100 to 1000 | ≥ 75 | 100 to 1000 | ≥ 75 |  |  |  | 
CC(=O)N(Cc1ccccc1Cl)[C@@H]1C[C@@H]2CN(C(=O)n3cc(Cl)cn3)C[C@@H]2C1 [Example 62, N-(cis-2-(4-chloro-1H-pyrazole-1-carbonyl)octahydrocyclopenta[c]pyrrol-5-yl)-N-(2-chlorobenzyl)acetamide] | 100 to 1000 | ≥ 75 | 100 to 1000 | ≥ 75 |  |  |  | 
CC(=O)N(Cc1ccccc1Cl)[C@H]1C[C@@H]2CN(C(=O)n3cc(Cl)cn3)C[C@@H]2C1 [Example 63, N-(trans-2-(4-chloro-1H-pyrazole-1-carbonyl)octahydrocyclopenta[c]pyrrol-5-yl)-N-(2-chlorobenzyl)acetamide] |  | ≥ 75 |  | 25 to 50 |  |  |  | 
O=C(N1C[C@H]2C[C@H](NCc3ccccc3Cl)C[C@H]2C1)n1cc(Cl)cn1 [Example 64, (4-chloro-1H-pyrazol-1-yl)(trans-5-((2-chlorobenzyl)amino)hexahydrocyclopenta[c]pyrrol-2(1H)-yl)methanone] | ≤ 100 | ≥ 75 | ≤ 100 | ≥ 75 |  |  |  | 
CN(Cc1cccc(Cl)c1)[C@@H]1C[C@@H]2CN(C(=O)n3cc(Cl)cn3)C[C@@H]2C1 [Example 65, (4-chloro-1H-pyrazol-1-yl)(cis-5-((3-chlorobenzyl)(methyl)amino)hexahydrocyclopenta[c]pyrrol-2(1H)-yl)methanone] | ≤ 100 | ≥ 75 | ≤ 100 | ≥ 75 |  |  |  | 
O=C(N1C[C@H]2C[C@@H](NCc3cccc(Cl)c3)C[C@H]2C1)n1cc(Cl)cn1 [Example 66, (4-chloro-1H-pyrazol-1-yl)(cis-5-((3-chlorobenzyl)amino)hexahydrocyclopenta[c]pyrrol-2(1H)-yl)methanone] | 100 to 1000 | ≥ 75 | ≤ 100 | ≥ 75 |  |  |  | 
CN(Cc1ccc(Cl)cc1)[C@@H]1C[C@@H]2CN(C(=O)n3cc(Cl)cn3)C[C@@H]2C1 [Example 67, (4-chloro-1H-pyrazol-1-yl)(cis-5-((4-chlorobenzyl)(methyl)amino)hexahydrocyclopenta[c]pyrrol-2(1H)-yl)methanone] | 100 to 1000 | ≥ 75 | ≤ 100 | ≥ 75 |  |  |  | 
CN(Cc1ccc(Cl)cc1)[C@H]1C[C@@H]2CN(C(=O)n3cc(Cl)cn3)C[C@@H]2C1 [Example 68, (4-chloro-1H-pyrazol-1-yl)(trans-5-((4-chlorobenzyl)(methyl)amino)hexahydrocyclopenta[c]pyrrol-2(1H)-yl)methanone] |  | ≥ 75 |  | ≥ 75 |  |  |  | 

Reference: patent US10385057B2, “Pyrazole compounds and methods of making and using same” (Lundbeck La Jolla Research Center, Inc., priority 2015, dated 2019)
